The record followed here is patent US20050085420A1, “Method of modulating apoptosis and compositions thereof” (priority 2003, published 2005).

Experiment [1] has as its system vdac2 -/- MEF cell lines. Nature of the experiment: Cytochrome c release assay (subcellular fractionation, immunoblot), vdac2 -/- cells. The note with it: 1 μM staurosporine. In kind it is cell-based, mouse. On the procedure:
(§1) FIG. 4C is a photograph depicting treatment of wt or vdac2 -/- MEF cell lines with 1 μM STS. The wt or vdac2 -/- MEF cell lines were subcellularly fractionated (see method) at indicated time points. Cytochrome c distribution in the cytosol versus mitochondria was assessed by immunoblot developed with an anti-cytochrome c antibody.
(§2) MEF cell lines treated with 1 μM staurosporine were harvested at various time points and lysed for 5 min in isotonic buffer containing 10 mM KCl, 5 mM MgCl2, 1 mM EDTA, 1 mM EGTA, 250 mM sucrose, 20 mM Hepes, pH 7.2, 0.025% digitonin, and complete protease inhibitors (Roche). Organelles that contain mitochondria were removed from the soluble cytosolic fraction by pelleting at 15000 g. Supernatant and mitochondrial pellets were solubilized in SDS-PAGE loading buffer and analyzed by an immunoblot, developed with an anti-cytochrome c Ab. […]
(§3) In contrast, the response of wt- and vdac2-dificient cells was similar when the extrinsic death pathway was activated by TNFα (FIG. 4E). […] BAK already underwent oligomerization within 5 hours after staurosporine treatment in vdac2 -/- cells but not wt cells, as assessed by gel filtration (FIG. 4F) (X. Roucou, S. Montessuit, B. Antonsson, J. C. Martinou, Biochem J 368, 915-21. (2002)). […]

Experiment [2] concerns wt MEF cell lines. As to the kind of experiment: Cytochrome c release assay (subcellular fractionation, immunoblot), wt cells. In kind it is cell-based, mouse. The following applies: 1 μM staurosporine. On the procedure: as §1, §2, §3
The subject of a further experiment is vdac2 -/- MEF lines. Nature of the experiment: Cytochrome c fluorescence microscopy after staurosporine, vdac2 -/- MEF line. In kind it is cell-based, mouse. The following applies: 1 μM STS, 4 hours. The method, then: (§4) FIG. 4D is a photograph depicting two-color fluorescence microscopy of wt and vdac2 -/- MEF lines at 4 hours following 1 μM STS. Red indicates cytochrome c and blue is Hoechst staining of DNA.
(§5) MEF cell lines treated with 1 μM staurosporine were harvested at various time points and lysed for 5 min in isotonic buffer containing 10 mM KCl, 5 mM MgCl2, 1 mM EDTA, 1 mM EGTA, 250 mM sucrose, 20 mM Hepes, pH 7.2, 0.025% digitonin, and complete protease inhibitors (Roche). Organelles that contain mitochondria were removed from the soluble cytosolic fraction by pelleting at 15000 g. Supernatant and mitochondrial pellets were solubilized in SDS-PAGE loading buffer and analyzed by an immunoblot, developed with an anti-cytochrome c Ab. Protein cross-linking, immunoblot, immunoprecipitation, isolation of mitochondria, cell viability assays, and anti-cytochrome c immunohistochemistry were described previously E. H. Cheng et al., Mol Cell 8, 705-11. (2001).

Experiment [3] relates to vdac2 -/- MEF cell lines. Nature of the experiment: BAK oligomerization by gel filtration after staurosporine, vdac2 -/- cells. In kind it is cell-based, mouse. On the procedure:
(§6) FIG. 4F is a photograph depicting mitochondria isolated from wt or vdac2 -/- MEF cell lines with or without treatment with STS for 5 hours were solubilized in 2% CHAPS buffer. 200 μg of lysate was subjected to Superdex 200 (HR 10/30) gel filtration column chromatography. Fractions were analyzed by an immunoblot developed with anti-BAK antibody.
(§7) The chromatographic step of Superdex 200 (HR 10/30, Amersham-Pharmacia) was performed on an automatic fast protein liquid chromatography (FPLC) station (Amersham-Pharmacia) at 4° C. […] Fractions of 0.6 ml were collected, precipitated by trichloroacetic acid, and analyzed by an immunoblot (fractions 16-31) developed with an anti-BAK Ab.
as §3

A further experiment concerns wt MEF lines. Nature of the experiment: Cytochrome c fluorescence microscopy after staurosporine, wt MEF line. The note with it: 1 μM STS, 4 hours. In kind it is cell-based, mouse. On the procedure:
as §4, §5

In experiment [4] the test system is wt MEF cell lines. As to the kind of experiment: BAK oligomerization by gel filtration after staurosporine, wt cells. In kind it is cell-based, mouse. The method, then: as §6, §7, §3
The target of a further experiment is T1, BAK (Mus musculus, UniProt O08734).
T1 construct: endogenous in cells; host or cells: wt MEFs transduced with HA-VDAC2 retrovirus; mitochondria solubilized in 1% CHAPS or 0.2% NP-40
T1 sequence (O08734 2-209 limits assumed): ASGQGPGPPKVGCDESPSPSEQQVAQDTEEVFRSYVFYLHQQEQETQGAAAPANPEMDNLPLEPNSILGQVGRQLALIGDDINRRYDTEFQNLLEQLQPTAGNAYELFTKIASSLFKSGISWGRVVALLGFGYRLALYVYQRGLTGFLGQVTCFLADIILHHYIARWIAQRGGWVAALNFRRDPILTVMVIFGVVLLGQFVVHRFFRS
T1 sequence (Q60930 1-295 partner): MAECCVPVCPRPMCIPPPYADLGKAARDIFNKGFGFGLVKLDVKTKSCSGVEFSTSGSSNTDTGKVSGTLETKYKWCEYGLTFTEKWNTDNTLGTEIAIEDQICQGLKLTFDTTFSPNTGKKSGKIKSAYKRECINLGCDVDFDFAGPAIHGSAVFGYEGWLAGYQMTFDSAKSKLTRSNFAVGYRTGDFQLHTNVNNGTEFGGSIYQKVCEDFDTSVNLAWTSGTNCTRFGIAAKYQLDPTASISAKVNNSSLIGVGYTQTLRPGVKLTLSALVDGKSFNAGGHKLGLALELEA
As to the kind of experiment: Co-precipitation of endogenous BAK with HA-tagged VDAC2. In kind it is binding. The note with it: wt MEF mitochondria, CHAPS, anti-HA immunoprecipitation. On the procedure:
(§8) FIG. 2E is a photograph depicting mitochondria isolated from wt MEFs (upper panel) or Bax, Bak doubly deficient MEFs (lower panel), which were transduced with retrovirus expressing N-terminal HA-tagged VDAC2, BAK or BAX and were solubilized in either 1% CHAPS or 0.2% NP-40 buffer, followed by immunoprecipitation with an anti-HA antibody. The immunoprecipitates were analyzed by an immunoblot developed with anti-HA-Biotin, anti-BAK, anti-BAX, or anti-VDAC2 Abs as indicated.
(§9) An HA-tagged BAK, but not HA-tagged BAX co-precipitated endogenous VDAC2 (FIG. 2E).

The target in another experiment is T2, BAX (Mus musculus, UniProt Q07813).
T2 construct: endogenous in cells; host or cells: wt MEFs transduced with HA-VDAC2 retrovirus; mitochondria solubilized in 1% CHAPS or 0.2% NP-40
As to the kind of experiment: Co-precipitation of endogenous BAX with HA-tagged VDAC2. The following applies: wt MEF mitochondria, CHAPS, anti-HA immunoprecipitation. In kind it is binding. On the procedure:
as §8, §9

For a further experiment, the system named is Bax -/- MEFs. As to the kind of experiment: Annexin-V cell death after retroviral expression of VDAC1 or VDAC2 in Bax -/- MEFs. In kind it is cell-based, mouse. The note with it: Bax -/- cells. The method, then: (§10) FIG. 3A are two graphs illustrating Bax -/- or Bak -/- MEFs at 2 days following retroviral expression of VDAC1, VDAC2, or GFP (MIG vector control), wherein the Bax -/- or Bak -/- MEFs were treated with 1.2 μM staurosporine (STS). Cell death was quantitated by flow cytometric detection of Annexin-V staining at indicated time points. Values shown are mean ±1 SD of three independent experiments.
(§11) FIG. 3B is a histogram depicting Bax -/- or Bak -/- MEFs at 2 days following retroviral expression of VDAC2 or GFP (MIG vector control), wherein the Bax -/- or Bak -/- MEFs were infected with tBID-expressing retrovirus. Cell death was quantitated by flow cytometric detection of Annexin-V staining at 24 hr. Values shown are mean ±1 SD of three independent experiments.
(§12) FIG. 6 are two graphs that depict Bax -/- or Bak -/- MEFs at 2 days following retroviral expression of VDAC1, VDAC2, or GFP (MIG vector control), wherein the Bax -/- or Bak -/- MEFs were treated with 10 μg/ml etoposide. Cell death was quantitated by flow cytometric detection of Annexin-V staining at indicated time points. Values shown are mean ±1 SD of three independent experiments.
(§13) Previous studies have shown that cells doubly deficient for BAX and BAK are resistant to intrinsic death stimuli, whereas cells singly deficient for BAX or BAK are still susceptible (M. C. Wei et al., Science 292, 727-30. (2001)). As VDAC2 interacts with BAK but not BAX, the ability of VDAC2 to modulate apoptosis mediated by BAK or BAX was tested. According to one hypothesis, VDAC2 might function as an inhibitor of BAK or VDAC2 itself might function as a proapoptotic factor once released from BAK. To address these alternatives VDAC 1 or VDAC2 was expressed in Bax -/- or Bak -/- singly deficient mouse embryonic fibroblasts (MEFs) followed by treatment with staurosporine or etoposide. […] Expression of VDAC2 inhibited tBID-induced apoptosis of Bax -/- cells but not Bak -/- cells, further supporting a selective role for VDAC2 in negatively regulating BAK-dependent apoptosis (FIG. 3B).

In a further experiment the test system is vdac2 -/- MEFs. As to the kind of experiment: Re-expression of VDAC2 in vdac2 -/- MEFs, Annexin-V cell death. In kind it is cell-based, mouse. The following applies: normal physiologic levels, 1.2 μM staurosporine 6 hr. On the procedure: FIG. 3E is a histogram depicting infection of primary vdac2 -/- MEFs with retrovirus expressing GFP (MIG vector control) or VDAC2-IRES-GFP. At 36 hours the GFP-positive cells isolated by MoFlo sorting were treated with 1.2 μM staurosporine for 6 hr. Cell death was quantitated by flow cytometric detection of Annexin-V staining. Values shown are mean ±1 SD of three independent experiments.

The next experiment deals with Bak -/- MEFs. Nature of the experiment: Annexin-V cell death after retroviral expression of VDAC1 or VDAC2 in Bak -/- MEFs. The following applies: Bak -/- cells. In kind it is cell-based, mouse. The method, then:
as §10, §11, §12, §13

Setting [5] is: retroviral expression, 1.2 μM staurosporine or 10 μg/ml etoposide, Annexin-V.
Setting [6] is: tBID-expressing retrovirus, Annexin-V at 24 hr.

T2 sequence (Q07813 whole entry): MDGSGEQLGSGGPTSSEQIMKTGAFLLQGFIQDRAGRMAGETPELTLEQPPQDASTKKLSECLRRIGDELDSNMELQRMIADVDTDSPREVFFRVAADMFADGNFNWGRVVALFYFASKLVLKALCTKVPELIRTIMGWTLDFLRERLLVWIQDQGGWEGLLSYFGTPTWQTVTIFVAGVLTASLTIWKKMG

Take `CN[C@@H]1C[C@H]2O[C@@](C)([C@@H]1OC)n1c3ccccc3c3c4c(c5c6ccccc6n2c5c31)C(=O)NC4` [staurosporine]: the “time of complete release of cytochrome c” value in the experiment on vdac2 -/- MEF cell lines [1] is at most 5 h. In addition, in the experiment with vdac2 -/- MEF cell lines [1], the “time of partial release of cytochrome c into the cytosol” value was at most 3 h. Further, the “release of cytochrome c at 3 and 5 hours” value in the experiment with wt MEF cell lines [2] was “had not initiated any release of cytochrome c”. Further, the “cells with diffuse cytosolic staining for cytochrome c” value came to 83% in the experiment on vdac2 -/- MEF lines and 16% in the experiment with wt MEF lines. Further, the “time to BAK oligomerization” value in the experiment with vdac2 -/- MEF cell lines [3] was at most 5 h; in the experiment on wt MEF cell lines [4], around 10 h.

B1: HA-tagged VDAC2: N-terminal HA-tagged murine VDAC2, retrovirally expressed (protein)
chain: MAECCVPVCPRPMCIPPPYADLGKAARDIFNKGFGFGLVKLDVKTKSCSGVEFSTSGSSNTDTGKVSGTLETKYKWCEYGLTFTEKWNTDNTLGTEIAIEDQICQGLKLTFDTTFSPNTGKKSGKIKSAYKRECINLGCDVDFDFAGPAIHGSAVFGYEGWLAGYQMTFDSAKSKLTRSNFAVGYRTGDFQLHTNVNNGTEFGGSIYQKVCEDFDTSVNLAWTSGTNCTRFGIAAKYQLDPTASISAKVNNSSLIGVGYTQTLRPGVKLTLSALVDGKSFNAGGHKLGLALELEA
modifications: left off: small tags and cut ends
notes: N-terminal HA-tagged murine VDAC2, retrovirally expressed
Take B1: the “co-precipitation of endogenous BAK” value with BAK was “efficiently co-precipitated”. Besides, in the experiment with BAX, the “co-precipitation of endogenous BAX” value is on record as “not”.

B2: VDAC2: Voltage-Dependent Anion Channel-2, murine, retrovirally expressed (protein, UniProt Q60930 1-295, looked up)
Non-selective voltage-gated …: MAECCVPVCPRPMCIPPPYADLGKAARDIFNKGFGFGLVKLDVKTKSCSGVEFSTSGSSNTDTGKVSGTLETKYKWCEYGLTFTEKWNTDNTLGTEIAIEDQICQGLKLTFDTTFSPNTGKKSGKIKSAYKRECINLGCDVDFDFAGPAIHGSAVFGYEGWLAGYQMTFDSAKSKLTRSNFAVGYRTGDFQLHTNVNNGTEFGGSIYQKVCEDFDTSVNLAWTSGTNCTRFGIAAKYQLDPTASISAKVNNSSLIGVGYTQTLRPGVKLTLSALVDGKSFNAGGHKLGLALELEA
On to B2, for which the “apoptosis after staurosporine or etoposide” value in the experiment with Bax -/- MEFs (setting [5]) was “significantly inhibited apoptosis”; with Bak -/- MEFs (setting [5]) it was “no effect”. For the same molecule, the values for the tBID-induced apoptosis result in the experiment on Bax -/- MEFs (setting [6]) and in the experiment on Bak -/- MEFs (setting [6]) were “inhibited” and “not”, respectively. The “susceptibility to apoptosis after re-expression” value in the experiment with vdac2 -/- MEFs was “reversed the increased susceptibility to apoptosis”.
